Experimental findings from ChEMBL document CHEMBL1201862, “PubChem BioAssay data set” (2004) are described below.

The source made the active and inactive calls. Where only a bound is given, the exact number is not on record here.

Format in all cases: functional
In experiment [1] the target is T1, Replicative DNA helicase DnaB (Mycobacterium tuberculosis, UniProt P9WMR3).
T1 sequence (P9WMR3 whole entry): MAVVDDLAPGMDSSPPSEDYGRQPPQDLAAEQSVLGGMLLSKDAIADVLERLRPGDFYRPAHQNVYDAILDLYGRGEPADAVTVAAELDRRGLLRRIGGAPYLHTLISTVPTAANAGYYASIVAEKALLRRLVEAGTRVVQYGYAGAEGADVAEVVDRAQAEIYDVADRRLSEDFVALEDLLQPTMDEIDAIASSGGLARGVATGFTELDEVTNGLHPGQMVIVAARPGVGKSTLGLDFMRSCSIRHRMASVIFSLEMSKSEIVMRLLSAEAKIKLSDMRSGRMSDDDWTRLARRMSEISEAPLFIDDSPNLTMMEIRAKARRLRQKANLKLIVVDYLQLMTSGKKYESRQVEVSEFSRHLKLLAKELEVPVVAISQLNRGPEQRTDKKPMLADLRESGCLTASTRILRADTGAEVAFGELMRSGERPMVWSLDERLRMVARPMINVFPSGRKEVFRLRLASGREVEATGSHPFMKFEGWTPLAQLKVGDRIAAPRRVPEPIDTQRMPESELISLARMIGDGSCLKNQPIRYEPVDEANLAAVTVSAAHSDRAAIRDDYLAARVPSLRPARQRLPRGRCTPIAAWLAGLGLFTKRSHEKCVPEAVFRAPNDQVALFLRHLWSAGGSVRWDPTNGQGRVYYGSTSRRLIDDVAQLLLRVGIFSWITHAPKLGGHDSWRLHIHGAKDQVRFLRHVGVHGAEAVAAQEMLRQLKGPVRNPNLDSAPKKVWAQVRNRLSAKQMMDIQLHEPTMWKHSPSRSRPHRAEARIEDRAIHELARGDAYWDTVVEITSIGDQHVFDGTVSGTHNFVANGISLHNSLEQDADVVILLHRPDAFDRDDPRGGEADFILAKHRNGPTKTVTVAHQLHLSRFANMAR
Briefly: DnaB intein splicing inhibitors, dose response, biochemical, cell-free fluorescence (AID 449749).

Experiment [2] deals with T2, Hexokinase HKDC1 (Homo sapiens, UniProt Q2TB90).
T2 sequence (Q2TB90 whole entry): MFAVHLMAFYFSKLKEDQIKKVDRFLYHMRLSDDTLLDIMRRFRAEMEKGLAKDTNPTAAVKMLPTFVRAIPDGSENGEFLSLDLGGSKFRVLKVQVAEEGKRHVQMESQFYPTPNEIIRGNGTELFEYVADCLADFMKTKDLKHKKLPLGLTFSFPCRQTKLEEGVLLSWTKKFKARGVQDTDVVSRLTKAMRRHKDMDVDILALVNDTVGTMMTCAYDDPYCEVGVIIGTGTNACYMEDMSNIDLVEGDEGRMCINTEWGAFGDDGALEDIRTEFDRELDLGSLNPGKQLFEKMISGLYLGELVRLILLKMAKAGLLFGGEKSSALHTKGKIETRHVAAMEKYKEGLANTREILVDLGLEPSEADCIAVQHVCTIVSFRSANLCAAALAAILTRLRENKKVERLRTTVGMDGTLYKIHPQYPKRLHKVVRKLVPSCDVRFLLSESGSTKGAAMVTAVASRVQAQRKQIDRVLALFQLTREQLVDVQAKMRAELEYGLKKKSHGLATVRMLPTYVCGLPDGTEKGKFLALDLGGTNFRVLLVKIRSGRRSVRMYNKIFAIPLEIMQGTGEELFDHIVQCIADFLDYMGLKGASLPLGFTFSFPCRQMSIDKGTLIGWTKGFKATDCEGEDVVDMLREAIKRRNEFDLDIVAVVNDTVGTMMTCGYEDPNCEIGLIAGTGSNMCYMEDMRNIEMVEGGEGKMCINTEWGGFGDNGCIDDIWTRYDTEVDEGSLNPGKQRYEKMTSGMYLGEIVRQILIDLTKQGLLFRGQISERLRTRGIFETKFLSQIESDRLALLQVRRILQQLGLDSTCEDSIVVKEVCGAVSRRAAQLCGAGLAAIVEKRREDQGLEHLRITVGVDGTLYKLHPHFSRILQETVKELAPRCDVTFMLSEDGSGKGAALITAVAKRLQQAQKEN
Briefly: HKDC1 hexokinase inhibitors, dose response, biochemical, W721R variant (AID 504729).

Experiment [3] addresses T3, Sentrin-specific protease 6 (Homo sapiens, UniProt Q9GZR1).
T3 sequence (Q9GZR1 whole entry): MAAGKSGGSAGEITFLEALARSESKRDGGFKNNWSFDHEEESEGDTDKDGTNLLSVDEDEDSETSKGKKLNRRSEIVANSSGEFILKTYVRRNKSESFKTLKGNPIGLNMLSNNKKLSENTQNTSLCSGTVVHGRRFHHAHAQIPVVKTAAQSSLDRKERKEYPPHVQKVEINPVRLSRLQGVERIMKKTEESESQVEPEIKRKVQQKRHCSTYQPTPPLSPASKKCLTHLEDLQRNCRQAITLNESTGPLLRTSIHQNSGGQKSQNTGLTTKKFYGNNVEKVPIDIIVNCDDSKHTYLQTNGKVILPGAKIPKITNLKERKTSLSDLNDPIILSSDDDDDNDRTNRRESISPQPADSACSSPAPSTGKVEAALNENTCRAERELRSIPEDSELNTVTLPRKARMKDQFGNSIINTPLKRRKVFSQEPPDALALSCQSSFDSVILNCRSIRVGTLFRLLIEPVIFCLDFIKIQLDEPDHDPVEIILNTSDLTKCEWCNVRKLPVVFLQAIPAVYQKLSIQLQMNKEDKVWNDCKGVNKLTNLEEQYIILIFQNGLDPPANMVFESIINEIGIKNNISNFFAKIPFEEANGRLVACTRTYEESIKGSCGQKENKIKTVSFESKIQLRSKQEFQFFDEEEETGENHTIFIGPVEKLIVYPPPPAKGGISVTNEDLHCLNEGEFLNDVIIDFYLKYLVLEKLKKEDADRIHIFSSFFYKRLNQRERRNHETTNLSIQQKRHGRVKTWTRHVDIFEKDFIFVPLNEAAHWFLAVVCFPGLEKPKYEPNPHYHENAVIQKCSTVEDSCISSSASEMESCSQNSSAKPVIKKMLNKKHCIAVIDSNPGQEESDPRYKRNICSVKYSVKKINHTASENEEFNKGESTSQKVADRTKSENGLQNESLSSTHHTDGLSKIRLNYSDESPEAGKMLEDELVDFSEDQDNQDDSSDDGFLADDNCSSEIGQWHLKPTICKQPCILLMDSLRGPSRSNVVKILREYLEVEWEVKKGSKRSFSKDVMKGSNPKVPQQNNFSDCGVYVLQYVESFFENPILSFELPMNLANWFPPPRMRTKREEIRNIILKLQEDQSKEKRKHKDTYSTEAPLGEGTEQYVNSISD

On to `COC(=O)c1ccccc1NC1=C/C(=N\S(=O)(=O)c2ccc(C(=O)O)cc2)c2ccccc2C1=O`, for which, in experiment [1], the AC50 (in general, the concentration giving half of the maximal activity seen) was > 380 µM (inconclusive). For the same compound, in experiment [2], the IC50 (commonly the midpoint of a concentration-inhibition curve) was 3.84 µM (active).

For `NC(=O)C1CCN(C2=C(Cl)C(=O)c3ccccc3C2=O)CC1`, the AC50 in experiment [1] was 0.617 µM (active). For the same compound, the IC50 in experiment [3] was 5.84 µM (active); in experiment [2], 25.9 µM (inactive).

On to `O=c1c2ccccc2nc(/C=C/c2cccnc2)n1Cc1ccccc1`, for which, in experiment [1], the AC50 is 9.28 µM (active). Also, in experiment [2], the IC50 was 3.2 µM (active).

Regarding `O=C(O)c1ccc(N/N=C/c2ccc(OC(=O)c3ccccc3Cl)cc2)cc1`, the half-inhibitory concentration (IC50) in experiment [3] is 2.16 µM (active).
